Target: T1, human CXCR3 (N-delta 4) (Homo sapiens, UniProt P49682)
T1 construct: CD8 leader (N); Flag; expressed in transfected cells; membranes prepared
T1 sequence (P49682 5-368 limits assumed): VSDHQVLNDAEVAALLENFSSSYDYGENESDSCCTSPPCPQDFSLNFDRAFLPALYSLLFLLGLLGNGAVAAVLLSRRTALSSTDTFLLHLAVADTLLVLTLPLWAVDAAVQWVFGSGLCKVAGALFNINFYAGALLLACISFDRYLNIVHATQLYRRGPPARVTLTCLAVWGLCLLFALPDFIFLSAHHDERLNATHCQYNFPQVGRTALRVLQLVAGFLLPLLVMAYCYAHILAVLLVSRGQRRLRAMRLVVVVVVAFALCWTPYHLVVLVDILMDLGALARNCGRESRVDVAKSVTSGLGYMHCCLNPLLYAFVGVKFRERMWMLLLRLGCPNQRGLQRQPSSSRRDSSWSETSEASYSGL
Experiment: Human CXCR3 (N-delta 4) Scintillation Proximity Assay (SPA), [125I] IP-10 binding to Ba/F3-hCXCR3 membranes
Conditions: IC50 rating, Table 1; read-out: IC50

SMILES | IC50 [nM]
CC[C@H]1CN(c2nc(N)c(C(=O)NCCO)nc2Cl)CCN1C1CCN(C(CCO)c2ccc(Cl)cc2)CC1 (some centres unmarked) [compound 170] | < 25
CC[C@H]1CN(c2nc(N)c(C(=O)NCCO)nc2Cl)CCN1C1CCN(Cc2ccc(Cl)cc2-c2cnc(N)nc2)CC1 [compound 171] | < 25
CC[C@H]1CN(c2nc(N)c(C(=O)NCCO)nc2Cl)CCN1C1CCN(Cc2ccc(F)c(F)c2N2CC[C@H](O)C2)CC1 [compound 172] | < 25
CC[C@H]1CN(c2nc(N)c(C(=O)NCCO)nc2Cl)CCN1C1CCN(Cc2ccc(C#N)cc2OCCO)CC1 [compound 173] | < 25
CC[C@H]1CN(c2nc(N)c(C(=O)NCCO)nc2Cl)CCN1C1CCN(Cc2ccc(OC(F)(F)F)cc2OCC(N)=O)CC1 [compound 174] | < 25
CC[C@H]1CN(c2nc(N)c(C(=O)NCCO)nc2Cl)CCN1C1CCN([C@@H](C(=O)OC)c2ccc(C#N)cc2)CC1 [compound 175] | < 25
CC[C@H]1CN(c2nc(N)c(C(=O)NCCO)nc2Cl)CCN1C1CCN(Cc2ccc(Cl)cc2C(=O)NCCO)CC1 [compound 176] | < 25
CC[C@H]1CN(c2nc(N)c(C(=O)NCCO)nc2Cl)CCN1C1CCN([C@@H](C(=O)O)c2ccc(Cl)cc2)CC1 [compound 177] | 25 to 100
CC[C@H]1CN(c2nc(N)c(C(=O)NCCO)nc2Cl)CCN1C1CCN(Cc2ccc(F)c(F)c2O)CC1 [compound 178] | 25 to 100
CC[C@H]1CN(c2nc(N)c(C(=O)NCCO)nc2Cl)CCN1C1CCN(C(CCNC(C)=O)c2ccc(Cl)cc2)CC1 (some centres unmarked) [compound 179] | 25 to 100
CC[C@H]1CN(c2nc(N)c(C(=O)NCCO)nc2Cl)CCN1C1CCN(Cc2ccc(C#N)cc2O)CC1 [compound 180] | 25 to 100
CC[C@H]1CN(c2nc(N)c(C(=O)NCCO)nc2Cl)CCN1C1CCN(Cc2cc(F)c(F)c(F)c2O)CC1 [compound 181] | 25 to 100
CC[C@H]1CN(c2nc(N)c(C(=O)NCCO)nc2Cl)CCN1C1CCN([C@H](CO)c2ccc(F)c(F)c2)CC1 [compound 182] | 25 to 100
CC[C@H]1CN(c2nc(N)c(C(=O)NCCO)nc2Cl)CCN1C1CCN(Cc2ccc(F)c(F)c2N2CCOCC2)CC1 [compound 183] | 25 to 100
CC[C@H]1CN(c2nc(N)c(C(=O)NCCO)nc2Cl)CCN1C1CCN(C(C(=O)O)c2ccc(Cl)cc2)CC1 (some centres unmarked) [compound 184] | 25 to 100
CC[C@H]1CN(c2nc(N)c(C(=O)NCCO)nc2Cl)CCN1C1CCN([C@@H](C(=O)OC)c2ccc(F)c(F)c2)CC1 [compound 185] | 25 to 100

SMILES | IC50 [nM]
CC[C@H]1CN(c2nc(N)c(C(=O)NCCO)nc2Cl)CCN1C1CCN(Cc2c(O)cc(Cl)cc2Cl)CC1 [compound 186] | 25 to 100
CC[C@H]1CN(c2nc(N)c(C(=O)NCCO)nc2Cl)CCN1C1CCN(C(CCOC)c2ccc(Cl)cc2)CC1 (some centres unmarked) [compound 187] | 25 to 100
CC[C@H]1CN(c2nc(N)c(C(=O)NCCO)nc2Cl)CCN1C1CCN(Cc2ccc(F)c(F)c2N2CCC(=O)C2)CC1 [compound 188] | 25 to 100
CC[C@H]1CN(c2nc(N)c(C(=O)NCCO)nc2Cl)CCN1C1CCN(Cc2ccc(Cl)cc2O[C@H]2CCOC2)CC1 [compound 189] | 25 to 100
CC[C@H]1CN(c2nc(N)c(C(=O)NCCO)nc2Cl)CCN1C1CCN(Cc2ccc(C#N)cc2OCC(=O)NCCO)CC1 [compound 191] | 25 to 100
CC[C@H]1CN(c2nc(N)c(C(=O)NCCO)nc2Cl)CCN1C1CCN([C@H](C(=O)OC)c2ccc(Cl)cc2)CC1 [compound 192] | > 100
CC[C@H]1CN(c2nc(N)c(C(=O)NCCO)nc2Cl)CCN1C1CCN(Cc2ccc(C#N)cc2OCCN2CCCC2=O)CC1 [compound 193] | > 100
CC[C@H]1CN(c2nc(N)c(C(=O)NCCO)nc2Cl)CCN1C1CCN(Cc2ccc(Cl)cc2C(C)C(=O)OC)CC1 (some centres unmarked) [compound 194] | > 100
CC[C@H]1CN(c2nc(N)c(C(=O)NCCO)nc2Cl)CCN1C1CCN(Cc2ccc(Cl)cc2OCCN2CCCC2=O)CC1 [compound 195] | > 100
CC[C@H]1CN(c2nc(N)c(C(=O)NCCO)nc2Cl)CCN1C1CCN(Cc2ccc(Cl)cc2NS(C)(=O)=O)CC1 [compound 196] | > 100
CC[C@H]1CN(c2nc(N)c(C(=O)NCCO)nc2Cl)CCN1C1CCN(Cc2ccc(Cl)cc2C(=O)N2CCOCC2)CC1 [compound 197] | > 100
CC[C@H]1CN(c2nc(N)c(C(=O)NCCO)nc2Cl)CCN1C1CCN([C@H](C(=O)OC)c2ccc(F)c(F)c2)CC1 [compound 198] | > 100
CC[C@H]1CN(c2nc(N)c(C(=O)NCCO)nc2Cl)CCN1C1CCN(C(CCN)c2ccc(Cl)cc2)CC1 (some centres unmarked) [compound 199] | > 100
CC[C@H]1CN(c2nc(N)c(C(=O)NCCO)nc2Cl)CCN1C1CCN([C@H](C(=O)OC)c2ccc(C#N)cc2)CC1 [compound 200] | > 100
CC[C@H]1CN(c2nc(N)c(C(=O)NCCO)nc2Cl)CCN1C1CCN(Cc2c(F)cc(F)c(F)c2O)CC1 [compound 201] | > 100
CC[C@H]1CN(c2nc(N)c(C(=O)NCCO)nc2Cl)CCN1C1CCN(Cc2ccc(Cl)cc2C(C)C(=O)O)CC1 (some centres unmarked) [compound 202] | > 100

The next lines start with the values.

IC50 [nM] | SMILES
< 25 | CC[C@H]1CN(c2nc(N)c(C(=O)NCCO)nc2Cl)CCN1C1CCN(Cc2ccc(-c3ccc(F)cc3)cc2)CC1 [compound 140]
< 25 | CC[C@H]1CN(c2nc(N)c(C(=O)NCCO)nc2Cl)CCN1C1CCN(Cc2ccc(Cl)cc2N2CC[C@@H](O)C2)CC1 [compound 141]
< 25 | CC[C@H]1CN(c2nc(N)c(C(=O)NCCO)nc2Cl)CCN1C1CCN(Cc2ccc(Cl)cc2C(=O)OC)CC1 [compound 142]
< 25 | CC[C@H]1CN(c2nc(N)c(C(=O)NCCO)nc2Cl)CCN1C1CCN(Cc2cc(F)c(Cl)cc2OCCOC)CC1 [compound 143]
< 25 | CC[C@H]1CN(c2nc(N)c(C(=O)NCCO)nc2Cl)CCN1C1CCN(Cc2ccc(C#CC(C)(C)O)cc2)CC1 [compound 144]
< 25 | CC[C@H]1CN(c2nc(N)c(C(=O)NCCO)nc2Cl)CCN1C1CCN(Cc2ccc(Cl)cc2C(C)(C)O)CC1 [compound 145]
< 25 | CC[C@H]1CN(c2nc(N)c(C(=O)NCCO)nc2Cl)CCN1C1CCN(Cc2ccc(C#N)cc2OCC(=O)NCCO)CC1 [compound 146]
< 25 | CC[C@H]1CN(c2nc(N)c(C(=O)NCCO)nc2Cl)CCN1C1CCN(Cc2ccc(Cl)cc2OCCNS(=O)(=O)N(C)C)CC1 [compound 147]
< 25 | CCNC(=O)NCCC(c1ccc(Cl)cc1)N1CCC(N2CCN(c3nc(N)c(C(=O)NCCO)nc3Cl)C[C@@H]2CC)CC1 (some centres unmarked) [compound 148]
< 25 | CC[C@H]1CN(c2nc(N)c(C(=O)NCCO)nc2Cl)CCN1C1CCN(Cc2ccc(Cl)cc2OCC(N)=O)CC1 [compound 149]
< 25 | CC[C@H]1CN(c2nc(N)c(C(=O)NCCO)nc2Cl)CCN1C1CCN([C@@H](C(=O)OC)c2ccc(Cl)cc2)CC1 [compound 150]
< 25 | CC[C@H]1CN(c2nc(N)c(C(=O)NCCO)nc2Cl)CCN1C1CCN(Cc2ccc(Cl)cc2C(=N)NC)CC1 [compound 151]
< 25 | CC[C@H]1CN(c2nc(N)c(C(=O)NCCO)nc2Cl)CCN1C1CCN(Cc2ccc(OC)cc2O)CC1 [compound 152]
< 25 | CC[C@H]1CN(c2nc(N)c(C(=O)NCCO)nc2Cl)CCN1C1CCN([C@H](CO)c2ccc(C#N)cc2)CC1 [compound 153]
< 25 | CC[C@H]1CN(c2nc(N)c(C(=O)NCCO)nc2Cl)CCN1C1CCN(Cc2ccc(-c3csnn3)cc2)CC1 [compound 154]
< 25 | CC[C@H]1CN(c2nc(N)c(C(=O)NCCO)nc2Cl)CCN1C1CCN(Cc2ccc(Cl)c(F)c2O)CC1 [compound 155]
< 25 | CC[C@H]1CN(c2nc(N)c(C(=O)NCCO)nc2Cl)CCN1C1CCN(Cc2ccc(Cl)cc2NC(N)=O)CC1 [compound 156]
< 25 | CCNC(=O)Nc1cc(Cl)ccc1CN1CCC(N2CCN(c3nc(N)c(C(=O)NCCO)nc3Cl)C[C@@H]2CC)CC1 [compound 157]
< 25 | CC[C@H]1CN(c2nc(N)c(C(=O)NCCO)nc2Cl)CCN1C1CCN(Cc2ccc(F)cc2F)CC1 [compound 158]
< 25 | CC[C@H]1CN(c2nc(N)c(C(=O)NCCO)nc2Cl)CCN1C1CCN(Cc2cc(F)c(Cl)cc2O)CC1 [compound 159]
< 25 | CC[C@H]1CN(c2nc(N)c(C(=O)NCCO)nc2Cl)CCN1C1CCN(Cc2ccc(Cl)cc2C(=O)NC)CC1 [compound 160]
< 25 | CC[C@H]1CN(c2nc(N)c(C(=O)NCCO)nc2Cl)CCN1C1CCN(Cc2ccc(Cl)cc2-c2nnn[nH]2)CC1 [compound 161]
< 25 | CC[C@H]1CN(c2nc(N)c(C(=O)NCCO)nc2Cl)CCN1C1CCN(Cc2ccc(Oc3ccc(F)cc3)cc2)CC1 [compound 162]
< 25 | CC[C@H]1CN(c2nc(N)c(C(=O)NCCO)nc2Cl)CCN1C1CCN(Cc2ccc(C#N)cc2OCCOC)CC1 [compound 163]
< 25 | CC[C@H]1CN(c2nc(N)c(C(=O)NCCO)nc2Cl)CCN1C1CCN(Cc2ccc(Cl)cc2C(=O)O)CC1 [compound 164]
< 25 | CC[C@H]1CN(c2nc(N)c(C(=O)NCCO)nc2Cl)CCN1C1CCN(Cc2cc(F)c(Cl)cc2OCCNS(C)(=O)=O)CC1 [compound 165]
< 25 | CC[C@H]1CN(c2nc(N)c(C(=O)NCCO)nc2Cl)CCN1C1CCN(Cc2ccc(OC(F)(F)F)cc2O)CC1 [compound 166]
< 25 | CC[C@H]1CN(c2nc(N)c(C(=O)NCCO)nc2Cl)CCN1C1CCN(Cc2ccc(Cl)cc2C2=NCCN2)CC1 [compound 167]
< 25 | CC[C@H]1CN(c2nc(N)c(C(=O)NCCO)nc2Cl)CCN1C1CCN(Cc2ccc(OC(F)(F)F)cc2OCCO)CC1 [compound 168]
< 25 | CC[C@H]1CN(c2nc(N)c(C(=O)NCCO)nc2Cl)CCN1C1CCN(Cc2ccc(Cl)cc2OCCCO)CC1 [compound 169]
